Measured values as given in the supplement of paper PMC10307832.

Key:
Assay in all cases: relative viability (nuclei count vs DMSO), 5 days (fraction); higher = more cells survive
[1] = tested on: NCI-H661
Procedure, shortened: (§1)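 Values are medians from duplicate plates. Each reflects relative viability, defined as the nuclei count of treated wells over that of vehicle wells. Lung cancer cell lines in 1536-well plates were pin-tool dosed one day after seeding with one drug alone or with a fixed anchor-drug dose plus five library-drug doses (not always all listed) in √10 steps, then fixed, stained and imaged at 4× after 5 days.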

[2] = tested on: SW 1573
Procedure, shortened: as §1

[3] = tested on: NCI-H2009
Procedure, shortened: as §1

[4] = tested on: NCI-H2126
Procedure, shortened: as §1

[5] = tested on: NCI-H647
Procedure, shortened: as §1

[6] = tested on: H3255
Procedure, shortened: as §1

[7] = tested on: EMC-BAC-2
Procedure, shortened: as §1

[8] = tested on: LXF-289
Procedure, shortened: as §1

[9] = tested on: PC-14
Procedure, shortened: as §1

[10] = tested on: EPLC-272H
Procedure, shortened: as §1

[11] = tested on: HOP-62
Procedure, shortened: as §1

[12] = tested on: LCLC-97TM1
Procedure, shortened: as §1

[13] = tested on: NCI-H1993
Procedure, shortened: as §1

[14] = tested on: NCI-H322M
Procedure, shortened: as §1

[15] = tested on: NCI-H1915
Procedure, shortened: as §1

[16] = tested on: SK-LU-1
Procedure, shortened: as §1

[17] = tested on: NCI-H727
Procedure, shortened: as §1

[18] = tested on: NCI-H2347
Procedure, shortened: as §1

[19] = tested on: NCI-H2085
Procedure, shortened: as §1

[20] = tested on: NCI-H2023
Procedure, shortened: as §1

[21] = tested on: NCI-H1734
Procedure, shortened: as §1

What does the source list for `O=c1cc(-c2cccc3c2Sc2ccccc2S3)oc(N2CCOCC2)c1` + CC(=O)Nc1cccc(-n2c(=O)n(C3CC3)c(=O)c3c(Nc4ccc(I)cc4F)n(C)c(=O)c(C)c32)c1 [Trametinib] (partner 0.02 µM)?
relative viability ([1]; first compound 0.08 µM): 0.565; relative viability ([1]; first compound 0.253 µM): 0.649; relative viability ([1]; first compound 0.8 µM): 0.527; relative viability ([1]; first compound 2.53 µM): 0.514; relative viability ([1]; first compound 8 µM): 0.471; relative viability ([2]; first compound 0.08 µM): 0.597; relative viability ([2]; first compound 0.253 µM): 0.691; relative viability ([2]; first compound 0.8 µM): 0.575; relative viability ([2]; first compound 2.53 µM): 0.574; relative viability ([2]; first compound 8 µM): 0.554; relative viability ([3]; first compound 0.08 µM): 0.257; relative viability ([3]; first compound 0.253 µM): 0.236; relative viability ([3]; first compound 0.8 µM): 0.24; relative viability ([3]; first compound 2.53 µM): 0.213; relative viability ([3]; first compound 8 µM): 0.208; relative viability ([4]; first compound 0.08 µM): 0.583; relative viability ([4]; first compound 0.253 µM): 0.583; relative viability ([4]; first compound 0.8 µM): 0.526; relative viability ([4]; first compound 2.53 µM): 0.508; relative viability ([4]; first compound 8 µM): 0.474; relative viability ([5]; first compound 0.08 µM): 0.452; relative viability ([5]; first compound 0.253 µM): 0.543; relative viability ([5]; first compound 0.8 µM): 0.405; relative viability ([5]; first compound 2.53 µM): 0.376; relative viability ([5]; first compound 8 µM): 0.418; relative viability ([6]; first compound 0.08 µM): 0.725; relative viability ([6]; first compound 0.253 µM): 0.588; relative viability ([6]; first compound 0.8 µM): 0.681; relative viability ([6]; first compound 2.53 µM): 0.543; relative viability ([6]; first compound 8 µM): 0.561; relative viability ([7]; first compound 0.08 µM): 0.804; relative viability ([7]; first compound 0.253 µM): 1.04; relative viability ([7]; first compound 0.8 µM): 0.842; relative viability ([7]; first compound 2.53 µM): 0.908; relative viability ([7]; first compound 8 µM): 0.895; relative viability ([8]; first compound 0.08 µM): 0.657; relative viability ([8]; first compound 0.253 µM): 0.716; relative viability ([8]; first compound 0.8 µM): 0.73; relative viability ([8]; first compound 2.53 µM): 0.651; relative viability ([8]; first compound 8 µM): 0.692; relative viability ([9]; first compound 0.08 µM): 0.748; relative viability ([9]; first compound 0.253 µM): 0.828; relative viability ([9]; first compound 0.8 µM): 0.728; relative viability ([9]; first compound 2.53 µM): 0.827; relative viability ([9]; first compound 8 µM): 0.718; relative viability ([10]; first compound 0.08 µM): 0.254; relative viability ([10]; first compound 0.253 µM): 0.293; relative viability ([10]; first compound 0.8 µM): 0.238; relative viability ([10]; first compound 2.53 µM): 0.28; relative viability ([10]; first compound 8 µM): 0.28; relative viability ([11]; first compound 0.08 µM): 0.401; relative viability ([11]; first compound 0.253 µM): 0.394; relative viability ([11]; first compound 0.8 µM): 0.348; relative viability ([11]; first compound 2.53 µM): 0.319; relative viability ([11]; first compound 8 µM): 0.321; relative viability ([12]; first compound 0.08 µM): 0.204; relative viability ([12]; first compound 0.253 µM): 0.196; relative viability ([12]; first compound 0.8 µM): 0.175; relative viability ([12]; first compound 2.53 µM): 0.186; relative viability ([12]; first compound 8 µM): 0.181; relative viability ([13]; first compound 0.08 µM): 0.462; relative viability ([13]; first compound 0.253 µM): 0.64; relative viability ([13]; first compound 0.8 µM): 0.46; relative viability ([13]; first compound 2.53 µM): 0.467; relative viability ([13]; first compound 8 µM): 0.544; relative viability ([14]; first compound 0.08 µM): 0.52; relative viability ([14]; first compound 0.253 µM): 0.558; relative viability ([14]; first compound 0.8 µM): 0.591; relative viability ([14]; first compound 2.53 µM): 0.443; relative viability ([14]; first compound 8 µM): 0.529; relative viability ([15]; first compound 0.08 µM): 0.293; relative viability ([15]; first compound 0.253 µM): 0.312; relative viability ([15]; first compound 0.8 µM): 0.32; relative viability ([15]; first compound 2.53 µM): 0.285; relative viability ([15]; first compound 8 µM): 0.264; relative viability ([16]; first compound 0.08 µM): 0.422; relative viability ([16]; first compound 0.253 µM): 0.512; relative viability ([16]; first compound 0.8 µM): 0.582; relative viability ([16]; first compound 2.53 µM): 0.414; relative viability ([16]; first compound 8 µM): 0.415; relative viability ([17]; first compound 0.08 µM): 0.367; relative viability ([17]; first compound 0.253 µM): 0.37; relative viability ([17]; first compound 2.53 µM): 0.311; relative viability ([17]; first compound 8 µM): 0.389; relative viability ([18]; first compound 0.08 µM): 0.283; relative viability ([18]; first compound 0.253 µM): 0.266; relative viability ([18]; first compound 0.8 µM): 0.264; relative viability ([18]; first compound 2.53 µM): 0.27; relative viability ([18]; first compound 8 µM): 0.295; relative viability ([19]; first compound 0.08 µM): 0.526; relative viability ([19]; first compound 0.253 µM): 0.573; relative viability ([19]; first compound 0.8 µM): 0.441; relative viability ([19]; first compound 2.53 µM): 0.401; relative viability ([19]; first compound 8 µM): 0.446; relative viability ([20]; first compound 0.08 µM): 0.564; relative viability ([20]; first compound 0.253 µM): 0.647; relative viability ([20]; first compound 0.8 µM): 0.6; relative viability ([20]; first compound 2.53 µM): 0.534; relative viability ([20]; first compound 8 µM): 0.426; relative viability ([21]; first compound 0.08 µM): 0.656; relative viability ([21]; first compound 0.253 µM): 0.72; relative viability ([21]; first compound 0.8 µM): 0.69; relative viability ([21]; first compound 8 µM): 0.697
